Earlier results in US20220395499A1, “C[…] AFTER 5HT2A AGONISTS ADMINISTRATION” (Mind Medicine, Inc., priority 2021, published 2022).
Like-named read-outs stand apart in the source and are kept apart here.

Key:
[1] = LSD alone, no dose stated
[2] = biological target: T1, 5HT2A receptor (Homo sapiens, UniProt P28223)
T1 construct: host or cells: human subjects (in vivo, oral dosing)

[3] = biological target: 5-HT2B receptors (Homo sapiens, UniProt P41595)
[4] = not given; remark: listed apart in the source
[5] = tested on: adrenergic, dopaminergic, histaminergic, or muscarinic receptors
[6] = biological target: CYP3A4 (Homo sapiens, UniProt P08684)
Chain of CYP3A4 (P08684 whole entry): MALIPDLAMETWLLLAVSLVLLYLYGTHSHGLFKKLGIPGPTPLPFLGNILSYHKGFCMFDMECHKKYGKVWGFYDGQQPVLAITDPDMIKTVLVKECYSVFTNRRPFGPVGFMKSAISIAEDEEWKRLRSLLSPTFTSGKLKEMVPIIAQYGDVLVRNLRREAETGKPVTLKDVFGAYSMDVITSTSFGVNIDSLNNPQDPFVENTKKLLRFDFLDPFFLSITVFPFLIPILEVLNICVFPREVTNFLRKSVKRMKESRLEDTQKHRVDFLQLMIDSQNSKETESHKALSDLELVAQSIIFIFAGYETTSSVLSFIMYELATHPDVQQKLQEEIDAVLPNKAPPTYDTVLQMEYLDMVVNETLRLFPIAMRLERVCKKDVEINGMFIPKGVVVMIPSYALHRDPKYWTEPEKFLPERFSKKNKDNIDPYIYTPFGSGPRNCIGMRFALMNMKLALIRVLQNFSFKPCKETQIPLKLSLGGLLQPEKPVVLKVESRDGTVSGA

[7] = single 34-mg dose of pimavanserin

T1 sequence (P28223 whole entry): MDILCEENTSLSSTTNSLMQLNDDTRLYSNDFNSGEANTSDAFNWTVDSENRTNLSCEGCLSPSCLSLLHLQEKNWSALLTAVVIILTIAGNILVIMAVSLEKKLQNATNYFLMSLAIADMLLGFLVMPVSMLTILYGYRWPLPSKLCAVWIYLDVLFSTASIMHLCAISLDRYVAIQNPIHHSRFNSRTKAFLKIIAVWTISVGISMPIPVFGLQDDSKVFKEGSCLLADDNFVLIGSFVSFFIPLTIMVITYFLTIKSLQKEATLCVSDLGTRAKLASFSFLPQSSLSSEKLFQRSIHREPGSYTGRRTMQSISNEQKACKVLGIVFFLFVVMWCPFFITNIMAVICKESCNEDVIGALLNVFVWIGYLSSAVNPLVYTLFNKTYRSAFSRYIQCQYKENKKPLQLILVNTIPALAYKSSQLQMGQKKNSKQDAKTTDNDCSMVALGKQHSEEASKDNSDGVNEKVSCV
Chain of 5-HT2B receptors (P41595 whole entry): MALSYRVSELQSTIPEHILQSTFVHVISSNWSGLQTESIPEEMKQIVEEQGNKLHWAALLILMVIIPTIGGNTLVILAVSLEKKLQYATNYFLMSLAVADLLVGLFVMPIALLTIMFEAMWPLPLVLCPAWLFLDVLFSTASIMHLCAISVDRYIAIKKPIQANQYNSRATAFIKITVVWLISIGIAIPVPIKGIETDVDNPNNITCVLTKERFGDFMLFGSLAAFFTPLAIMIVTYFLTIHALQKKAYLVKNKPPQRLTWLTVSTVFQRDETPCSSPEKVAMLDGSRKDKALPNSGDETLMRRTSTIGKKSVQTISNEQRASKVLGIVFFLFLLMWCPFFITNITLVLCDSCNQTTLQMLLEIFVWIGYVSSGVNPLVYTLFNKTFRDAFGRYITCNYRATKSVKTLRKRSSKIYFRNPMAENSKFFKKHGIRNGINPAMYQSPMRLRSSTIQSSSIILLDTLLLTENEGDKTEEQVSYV

CCN(CC)C(=O)[C@@H]1C=C2c3cccc4[nH]cc(c34)C[C@H]2N(C)C1 [LSD, Lysergic acid diethylamide]
usual duration of action [1]: 8 to 12 h

O=C(c1ccc(F)cc1)C1CCN(CCn2c(=O)[nH]c3ccccc3c2=O)CC1 [ketanserin]
effect on the LSD experience ([2]; ketanserin 40 mg orally 1 hour prior to a high dose of LSD of 200 μg, Liechti): prevented the LSD experience | effect on the LSD experience ([2]; ketanserin 40 mg orally 1 hour prior to oral LSD at a moderate dose (70-100 μg), Preller et al., 2017): prevent the LSD experience almost completely

CC(C)COc1ccc(CNC(=O)N(Cc2ccc(F)cc2)C2CCN(C)CC2)cc1 [Pimavanserin, pimavanserin]
plasma protein binding: highly bound to plasma protein | affinity for 5-HT2B receptors [3]: no affinity | half-life [4, 7]: approximately 57 hours | mean (SD) apparent volume of distribution [4, 7]: 2,173 (307) L | time to maximum plasma concentration [4, 7]: six | antagonism of adrenergic, dopaminergic, histaminergic, or muscarinic receptors [5]: does not induce clinically significant antagonism | CYP3A4 inhibition or induction [6]: does not cause significant CYP3A4 inhibition or induction

CC(C)COc1ccc(CNC(=O)N(Cc2ccc(F)cc2)C2CCNCC2)cc1 [AC-279]
half-life of the active N-desmethylated metabolite ([4]; metabolite of pimavanserin): 200 h
